The test system of this test is INS-1E rat beta cells, no cytokines, CellTiter-Glo ATP, 48 h. As to the kind of experiment: ATP level change in INS-1E without cytokines, dose response, counter-screen for beta-cell apoptosis protection project, INS-1E rat cells, ATP luminescence, cherry pick (AID 463229).
Usually AC50 stands for the concentration giving half of the maximal activity seen. In the case of `Cc1ccc(S(=O)(=O)Nc2ccc(O)c3ccccc23)c(C)c1`, the AC50 was 13.7 µM.
Turning to `CC(=O)/C=C/n1c(=S)oc2ccccc21`, the AC50 was 8.87 µM.
For `CCCCCCCCCCOC(=O)Cn1c(COc2ccccc2OC)[n+](C)c2ccccc21`, the AC50 is 1.09 µM.
Then `Oc1c(C(c2ccccc2Cl)N2CCCC2)ccc2cccnc12` (configuration not stated), with 7.11 µM; and `COc1ccc(-c2ccc([C@H]3[C@@H]4C=CCC[C@@]4(C)C(=O)N3Cc3ccccc3)c(F)c2)cc1`, with 22.5 µM; and `COc1ccc(CCNc2ncnc3sccc23)cc1OC`, with 1.13 µM.
As for `COc1cc(CN2CCN(c3cc(C)ccc3C)CC2)ccc1O`, the figure is 7.21 µM; as for `COc1cc(C)c(C(=O)CC(=O)c2c(C)cc(OC)cc2C)c(C)c1`, 13.7 µM.
In the case of `Nc1nc(-c2ccccn2)nc(N)c1Cc1c(F)cccc1Cl`, the AC50 was 8.86 µM.
For `O=C(Nc1ccc(Cl)cc1)Nc1nnc(-c2ccncc2)s1`, the AC50 was 4.78 µM.
Then `CCN(C1CCCCC1)S(=O)(=O)c1ccc(S(=O)(=O)NCc2ccncc2)cc1`, with 6.3 µM.
As for `COc1cc2ccccc2cc1C(=O)Nc1sc2c(c1C(N)=O)CCN(C(C)C)C2`, the figure is 9.16 µM.
For `C/C(=N\NC(=O)c1ccc(F)cc1)c1ccccn1`, the AC50 was 2.35 µM.
As for `COc1cnc(-c2ccccn2)nc1Sc1ccc(C)cc1`, the figure is 17.2 µM; as for `COc1ccc2cc1Oc1ccc(cc1)C[C@H]1c3cc(c(OC)cc3CCN1C)Oc1c(O)c(OC)cc3c1[C@H](C2)N(C)CC3`, 7.07 µM; as for `OC(c1cc(-c2ccc(Cl)cc2)nc2ccccc12)C1CCCCN1` (configuration not stated), 15.1 µM.
Consider `O=S(=O)(Nc1cc(Sc2cccc3cccnc23)c(O)c2ccccc12)c1ccc(F)cc1`, for which the AC50 was 3.9 µM.
As to `N=c1c2c(-c3ccccc3)c(-c3ccccc3)n(Cc3ccco3)c2ncn1Cc1ccccc1`, the AC50 is 7.01 µM.
`COc1cc(SC#N)ccc1N=Cc1c(C)[nH]n(-c2ccc(C)cc2)c1=O`: the AC50 is 8.46 µM.
As for `O=C(CSC1c2ccccc2-c2ccccc21)N/N=C/c1ccccc1O`, the figure is 6.8 µM.
As for `CCN(c1ccccc1)S(=O)(=O)c1ccc(NC(=O)c2nc(S(C)(=O)=O)ncc2Cl)cc1`, the figure is 8.95 µM; as for `Cc1sc2ncnc(NCC(O)c3ccc([N+](=O)[O-])cc3)c2c1C` (configuration not stated), 5.1 µM; as for `Cc1cccc(/C=N/NC(=O)c2c(-c3ccccc3)noc2C)c1O`, 7.61 µM.
Turning to `CNC[C@H](Cc1ccccc1)NC[C@@H](Cc1cccc2ccccc12)NCCc1ccc(C)cc1`, the AC50 is 7.64 µM.
On to `CC(=O)Nc1ccc(Nc2c3ccccc3nc3ccccc23)cc1`, for which the AC50 was 7.08 µM.
Then `CCOC(=O)C(C(C)=O)c1c(Br)c(O)c(O)c2c(C(=O)c3ccc(C)cc3)coc12` (configuration not stated), with 2.9 µM; and `Cc1cc(C)nc(N/N=C/c2cc(Br)ccc2O)n1`, with 12.6 µM; and `Cc1occc1C(=O)N/N=C/c1ccc2c(c1)OCO2`, with 5.48 µM.
Then `O=C(Nc1cc(-c2ccccc2)nn1C1CCCCC1)c1ccc(Cl)cc1`, with 3.67 µM; and `Cn1cc(/C=C/c2cc[n+](C)cc2)c2cc(Cl)ccc21`, with 4.85 µM.
As for `CC(C)c1nc(-c2ccccc2)c(-c2ccccc2)[nH]1`, the figure is 6.81 µM; as for `C=CCn1cc(/C=C/c2cc[n+](C)cc2)c2ccccc21`, 4.63 µM.
For the compound `CC(C)Nc1ccc(Nc2ccnc3cc4ccccc4cc23)cc1`, the AC50 was 7.2 µM.
As for `CCN(CC)c1ccc(CNc2nc3ccccc3n2CCN2CCCCC2)cc1`, the figure is 7.26 µM.
Then `CC#CC[N+](C)(C)CCCCCCCCCCCC`, with 2.23 µM; and `Cc1cc(Nc2cccc(F)c2)nc(NCc2ccccc2)n1`, with 5.15 µM; and `CCCCC(=O)NC(c1ccc(N(C)C)cc1)c1ccc2cccnc2c1O` (configuration not stated), with 1.6 µM.
In the case of `COc1ccc(/C=C/C(=O)c2ccc([N+](=O)[O-])o2)cc1OC`, the AC50 is 4.93 µM.
As for `O=C(N/N=C/c1c(O)ccc2ccccc12)c1[nH]ncc1Br`, the figure is 2.16 µM; as for `Cc1cc(O)c2c(c1)C(=O)C13C(=C2O)C(=O)[C@H]2[C@@H](O)[C@@H]1[C@H]1[C@H](O)[C@@H]3C(=O)C3=C(O)c4c(O)cc(C)cc4C(=O)C312` (some centres not stated), 4.68 µM; as for `Cc1sc2ncnc(NC3CCN(Cc4ccccc4)CC3)c2c1C`, 5.11 µM.
As for `COc1cc(NC(=O)COc2cc(O)c3c(c2)OC(C)(C)CC3=O)cc(OC)c1OC`, the figure is 6.45 µM; as for `c1ccc2c(c1)ncn2CCCOc1ccc2c(c1)CCC2`, 7.74 µM; as for `O=C(CSc1nc2ccccc2c(=O)n1-c1ccccc1)N1CCc2ccccc2C1`, 3.16 µM.
Turning to `CCCC(=O)NC(c1ccc(OC)c(OC)c1)c1cc(Cl)c2cccnc2c1O` (configuration not stated), the AC50 was 7.47 µM.
As for `CC(=O)Nc1ccc(S(=O)(=O)Nc2ccc(N3CCCCC3)cc2)cc1`, the figure is 4.33 µM.
In the case of `CCOC(=O)c1cccc(-[n+]2c(-c3ccccc3)cc(-c3ccccc3)cc2-c2ccccc2)c1`, the AC50 was 3.59 µM.
`Cc1cccc(Cn2nnc3c2C(=O)c2ccccc2C3=O)c1`: the concentration at half-maximal activity (AC50) was 10.5 µM.
Then `COc1ccc(C2/C=C\CN(C(=O)c3ccc(C)cc3)[C@H](Cc3ccccc3)C(=O)N2Cc2ccc(F)cc2)cc1` (some centres not stated), with 7.33 µM; and `CCOC(=O)N1CCN(c2ncnc3c2[nH]c2ccc(F)cc23)CC1`, with 6.43 µM; and `Cc1ccc(N=Nc2ccc(O)c3ncccc23)cc1`, with 6.58 µM.
Consider `COc1ccc(S(=O)(=O)Nc2ccc3oc(C)c(C(C)=O)c3c2)cc1`, for which the AC50 was 12.3 µM.
Then `CC1=C(CO)C(=O)OC([C@@H](C)C2CC[C@H]3C4C[C@H]5O[C@]56[C@@H](O)C=CC(=O)[C@]6(C)C4CC[C@]23C)C1` (some centres not stated), with 6.2 µM; and `CN1/C(=C\C=C2/SC(=S)NC2=O)C(C)(C)c2ccccc21`, with 3.38 µM.
As for `COc1ccc(C(=O)/C(=C\c2ccco2)N2C=CC=CC2=C(C#N)C#N)cc1`, the figure is 7.26 µM; as for `CCCCCCCCCCOC(=O)Cn1c(COc2ccc(C)cc2)[n+](C)c2ccccc21`, 4 µM.
Then `CC(C)(C)C(=O)Nc1ccc(C(=O)N/N=C/c2ccccc2OC(=O)c2ccc(Cl)cc2)cc1`, with 11.8 µM; and `Cc1ccc(-c2c[n+]3c(n2-c2ccccc2)SCC3)cc1`, with 2.63 µM.
For the compound `Cc1sc2ncnc(N/N=C/c3ccccc3O)c2c1C`, the AC50 is 3.03 µM.
Take `C(=C\c1nc(N2CCCCCC2)c2ccccc2n1)/c1ccccc1`: the AC50 is 5.15 µM.
Regarding `Cc1ccc(C2(c3ccc(C)cc3)CC2C(=O)Nc2ccc([N+](=O)[O-])cc2O)cc1` (configuration not stated), the AC50 was 3.79 µM.
Turning to `Cc1ccc(-c2c[n+]3c(n2-c2ccccc2)CCC3)cc1`, the AC50 was 2.02 µM.
Then `CC(C)OCCCNc1ncnc2c1[nH]c1ccc(F)cc12`, with 2.46 µM; and `CC(CNC(=O)c1ccc(OC2CCN(Cc3ccccn3)CC2)cc1)Oc1cccnc1` (configuration not stated), with 7.36 µM.
Then `Cc1ccc(NC2=C/C(=N/S(=O)(=O)c3cccs3)c3ccccc3C2=O)cc1`, with 2.37 µM; and `O=C(CN1CCOCC1)N/N=C/c1c(O)ccc2ccccc12`, with 16.1 µM.
As for `Cc1ccc(S(=O)(=O)/N=C2\C(=O)c3ccccc3C([O-])=C2n2cc[n+](CCC(C)C)c2)cc1`, the figure is 16.7 µM; as for `Cc1ccc(-n2ncc3c2CCCC3NC(=O)c2ocnc2C)cc1C` (configuration not stated), 6.97 µM; as for `Cc1nc2ccccn2c1C(=O)/C=C/c1cccc([N+](=O)[O-])c1`, 7.93 µM.
Regarding `Cc1ccc(-c2cn(-c3ccc(SC(F)F)cc3)c3[n+]2CCC3)cc1`, the AC50 is 5.91 µM.
As for `O=C(C#Cc1ccccc1)c1ccco1`, the figure is 7.8 µM; as for `Oc1[nH]c2ccccc2c1N=NC(=S)N1CCOCC1`, 3.98 µM.
As for `O=C(Oc1c(CN2CCOCC2)cc(Cl)c2cccnc12)c1ccccc1`, the figure is 17.1 µM.
Then `Oc1c(C(Nc2cccc(C(F)(F)F)c2)c2ccncc2)ccc2cccnc12` (configuration not stated), with 6.84 µM.
On to `CCN(CC)C(=O)c1cc([N+](=O)[O-])cc2c1-c1ccc([N+](=O)[O-])cc1C2=C(C#N)C#N`, for which the AC50 was 9.06 µM.
As for `C/C(=N\NC(=O)c1cccc(Br)c1)c1ccccn1`, the figure is 1.32 µM; as for `O=[N+]([O-])c1ccc(/C=N/n2cnc3ccccc32)s1`, 4.04 µM.
As for `CC(=O)c1c(C)[nH]c(C(=O)OCc2cccc(Cl)c2)c1C`, the figure is 25.4 µM; as for `COc1cccc(/C=N/Nc2ccnc(=O)[nH]2)c1O`, 22.7 µM.
In the case of `Cc1ccc(-c2cc3cccc[n+]3cc2-c2ccc(C)cc2)cc1`, the AC50 was 0.566 µM.
Consider `Cc1ccc(NC2=C(N3CCCCC3)C(=O)c3ccccc3C2=O)cc1`, for which the AC50 was 1.9 µM.
In the case of `COc1cc(Br)cc(/C=N/NC(=O)Cc2ccc(C(F)(F)F)cc2[N+](=O)[O-])c1O`, the AC50 is 14.7 µM.
As for `CCCCCCCCCCCCCCCC[N+](C)(C)CC`, the figure is 6.57 µM; as for `CC(=O)NC(c1cccc([N+](=O)[O-])c1)c1ccc2cccnc2c1O` (configuration not stated), 2.58 µM.
Take `CCCCCCSc1ccc([C@H]2N[C@@](Cc3ccccc3)(C(=O)OC)[C@H]3C(=O)N(C)C(=O)[C@@H]23)cc1`: the AC50 is 14.6 µM.
`COc1ccc(CCNc2c(C)c(C)nc3ncnn23)cc1`: the AC50 is 3.68 µM.
For `CC1=C(C)/C(=N\OS(=O)(=O)c2ccc(C)cc2)C=CC1=O`, the AC50 is 4.47 µM.
As for `COc1cnc(-c2ccccn2)nc1Oc1ccc(C(C)(C)C)cc1`, the figure is 13.7 µM; as for `Cc1ccc(C(=O)Nc2nc(-c3ccccn3)cs2)cc1S(=O)(=O)N1CCOCC1`, 6.47 µM; as for `CCn1c(=O)c([N+](=O)[O-])c(Cl)c2ccccc21`, 7.4 µM.
Then `c1ccc2c(NCCCN3CCOCC3)c3ccccc3nc2c1`, with 6.37 µM; and `COc1cccc(CNCCc2c[nH]c3ccccc23)c1OCc1ccccc1F`, with 7 µM.
As for `Cc1ccc(-c2[nH]ncc2/C=N/n2c(COc3ccccc3C)nc3ccccc3c2=O)cc1`, the figure is 8.38 µM.
`O=C(NCc1nc(-c2ccc(C(F)(F)F)cc2)no1)Nc1cc(Cl)cc(Cl)c1`: the AC50 was 6.94 µM.
For the compound `O=C(Nc1nc2ccc(F)cc2s1)c1ccccn1`, the AC50 is 4.43 µM.
As for `Cc1cccc2sc(NNC(=O)c3ccc(S(=O)(=O)N4CCc5ccccc5C4)cc3)nc12`, the figure is 3.93 µM; as for `C/C(=N\NC(=O)c1ccccc1Cl)c1ccccn1`, 5.98 µM.

The values are drawn from PubChem BioAssay AID463229 (Broad Institute, 2010).
